Laboratory results reported in the supplement of paper PMC10307832.

Tests used:
Assay in all cases: relative viability (nuclei count vs DMSO), 5 days (fraction); higher = more cells survive
[1] = compound: CC(C)CCN1c2nc(Nc3cc(F)c(O)c(F)c3)ncc2N(C)C(=O)C1C [BI-D1870] + O=C(c1cc(Cc2n[nH]c(=O)c3ccccc23)ccc1F)N1CCN(C(=O)C2CC2)CC1 [Olaparib] (partner 8 µM)
Outline: (§1)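 Lung cancer cell lines in 1536-well plates got either a single drug or a fixed anchor-drug dose together with five library-drug doses (not always all listed) in √10 steps, by pin tool, on the day after seeding. Nuclei were counted after 5 days, and relative viability is the treated-to-vehicle ratio of nuclei counts. Values are medians of duplicate plates.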

[2] = compound: O=c1ncccn1[C@@H]1O[C@H](CO)[C@@H](O)[C@H]1O [Zebularine] + O=C(CCCCCCC(=O)Nc1ccccc1)NO [Vorinostat] (partner 1 µM)
Outline: as §1

[3] = compound: CC(C)CCN1c2nc(Nc3cc(F)c(O)c(F)c3)ncc2N(C)C(=O)C1C [BI-D1870] + Nc1nc2[nH]cc(CCc3ccc(C(=O)N[C@@H](CCC(=O)O)C(=O)O)cc3)c2c(=O)[nH]1 [Pemetrexed] (partner 0.2 µM)
Outline: as §1

[4] = compound: O=c1ncccn1[C@@H]1O[C@H](CO)[C@@H](O)[C@H]1O [Zebularine] + CS(=O)(=O)N1CCN(Cc2cc3nc(-c4cccc5[nH]ncc45)nc(N4CCOCC4)c3s2)CC1 [Pictilisib] (partner 1 µM)
Outline: as §1

Cell Line	relative viability ([1]; first compound 0.04 µM)	relative viability ([1]; first compound 0.1265 µM)	relative viability ([1]; first compound 0.4 µM)	relative viability ([1]; first compound 1.265 µM)	relative viability ([1]; first compound 4 µM)	relative viability ([2]; first compound 1 µM)	relative viability ([2]; first compound 3.162 µM)	relative viability ([2]; first compound 10 µM)	relative viability ([2]; first compound 31.62 µM)	relative viability ([2]; first compound 100 µM)	relative viability ([3]; first compound 0.04 µM)	relative viability ([3]; first compound 0.1265 µM)	relative viability ([3]; first compound 0.4 µM)	relative viability ([3]; first compound 1.265 µM)	relative viability ([3]; first compound 4 µM)	relative viability ([4]; first compound 1 µM)	relative viability ([4]; first compound 3.162 µM)	relative viability ([4]; first compound 10 µM)	relative viability ([4]; first compound 31.62 µM)	relative viability ([4]; first compound 100 µM)
201T	0.901	0.806	0.809	0.851	0.856	0.944	0.921	0.955	1.05	1.02	0.319	0.308	0.307	0.344	0.316	0.729	0.743	0.709	0.671	0.703
A549	0.382	0.382	0.268	0.379	0.399	–	–	–	–	–	–	–	–	–	–	0.626	0.482	–	0.619	0.209
A-427	0.71	0.647	0.659	0.705	0.551	0.96	0.855	0.703	0.666	0.361	1.02	0.982	0.994	0.963	0.784	0.835	0.783	0.686	0.433	0.191
ABC-1	0.751	0.782	1	0.613	0.666	1.15	1.02	0.701	0.835	0.575	–	–	–	–	–	0.62	0.326	0.633	0.564	0.439
BEN	1.23	1	1.02	1.11	0.806	0.701	0.603	0.486	0.411	0.373	0.784	0.628	0.743	0.96	0.697	0.56	0.504	0.291	0.385	0.3
CAL-12T	0.692	0.701	0.672	0.482	0.372	1.16	0.96	0.452	0.897	0.54	1.29	1.16	1.33	1.15	0.736	0.509	0.398	–	0.482	0.364
COR-L23	0.315	0.325	0.327	0.35	0.245	0.511	0.475	0.389	0.299	0.174	0.181	0.209	0.195	0.205	0.201	0.926	0.776	0.291	0.287	0.24
COR-L 105	0.79	0.533	0.713	0.687	0.678	1.38	0.898	0.734	0.945	0.619	1.31	0.883	1.14	1.32	1.05	0.388	0.381	0.373	0.464	0.41
Calu-6	0.658	0.534	0.479	0.359	0.254	–	–	–	–	–	–	–	–	–	–	0.995	0.898	0.467	0.859	0.218
ChaGo-K-1	0.451	0.379	0.414	0.412	0.303	0.767	0.648	0.442	0.274	0.252	0.255	0.245	0.253	0.242	0.235	0.896	0.557	0.466	0.447	0.27
EBC-1	0.738	0.581	0.574	0.337	0.183	–	–	–	–	–	–	–	–	–	–	0.338	0.348	0.311	0.387	0.303
EKVX	0.916	0.789	0.805	0.969	0.721	0.772	0.745	–	0.819	0.635	0.399	0.418	0.359	0.67	0.391	0.419	0.456	–	0.487	0.401
EMC-BAC-2	0.513	0.451	0.453	0.512	0.455	0.521	0.481	0.495	0.42	0.481	0.457	0.456	0.421	0.541	0.46	0.536	0.562	0.493	0.606	0.546
EPLC-272H	0.692	0.804	0.692	0.381	0.204	0.419	0.32	–	0.42	0.178	0.325	0.355	0.242	0.295	0.202	0.342	–	–	0.297	0.273
H3255	0.591	0.526	0.59	0.602	0.526	0.793	0.864	–	0.795	0.75	0.57	0.563	0.584	0.584	0.526	0.458	0.518	–	0.461	0.457
HARA	0.795	0.826	0.86	0.868	0.972	0.613	0.541	–	0.323	0.213	0.234	0.227	0.267	0.243	0.218	0.432	0.392	–	0.606	0.35
HCC-15	0.819	0.761	0.713	0.694	0.404	0.986	0.9	0.665	0.759	0.436	0.222	0.23	0.229	0.215	0.187	0.826	0.424	0.536	0.666	0.249
HCC-44	1	0.954	0.98	1.05	0.976	1.15	1.14	1.09	1.19	0.553	0.653	0.631	0.632	0.75	0.689	0.535	0.648	0.375	0.625	0.323
